Results reported in paper PMC10155127 (Nature microbiology, 2022).

Test system: E. coli ATCC 25922
Assay: Time-dependent killing
Format: cell-based
Conditions: antibiotic at 4x MIC

CC1(C)S[C@@H]2[C@H](NC(=O)[C@H](N)c3ccccc3)C(=O)N2[C@H]1C(=O)O [Ampicillin, ampicillin]
c.f.u. in time-dependent killing: fell below the limit of detection
